From patent US20100056623A1, “FUMAGILLOL DERIVATIVES OR METHOD FOR PREPARATION OF FUMAGILLOL DERIVATIVES, AND PHARMACEUTICAL COMPOSITIONS COMPRISING THE SAME” (CHONG KUN DANG PHARMACEUTICAL CORP., priority 2005, published 2010)
Like-named read-outs stand apart in the source and are kept apart here.

Key:
L5178Y lymphoma = assay: Inhibiting activity on cell proliferation, MTT analysis (L5178Y); type: cell-based, murine; conditions: Mus musculus, 72 h, L5178Y lymphoma cells, 3 days with drug
Experimental: (§1) In order to compare the safety index (SI) of CPAE (calf pulmonary artery endothelial cell) with that of HUVEC (human umbilical vein endothelial cell), L5178Y lymphoma that was isolated from murine thymus was used. The safety index was defined as IC50 ratio of L5178Y against CPAE (IC50L5178Y/IC50CPAE). All cell lines, which had been kept in liquid nitrogen tank, were used after being thawed and subcultured 2˜3 times in T-flask. CPAE, HUVEC and L5178Y were cultured in MEM culture medium (20% FBS, 50˜100 μg/ml ECGS, 0.15% baking soda, 0.05 mg/ml gentamicin), M199 culture medium (20% FBS, 0.22% baking soda, 100 μg/ml heparin, 3 ng/ml bFGF, 0.05 mg/ml gentamicin) and RPMI 1640 culture medium (10% FBS, 0.2% baking soda, 0.05 mg/ml gentamicin), respectively, under the condition of 37° C. and 5% CO2.
(§2) The drug was prepared by being gradationally diluted to two or ten times by using PBS, 20 μl of the solution was added to each well of 96 well plate in triplicate. The cell, which is being incubated, was treated with trypsin to give cell suspension. The number of cell thereafter was counted. And 180 μl of the solution was inoculated to each well and cultured.
The tumor cell was cultured with drugs for 3 days and then 50 μl of MTT (3-(4,5-dimethylthiazole-2-yl)-2,5-diphenyl tetrazolium bromide, Sigma Chemical Co.) solution (2.5 mg/ml in PBS) was added thereto. And it was further cultured for 4 hours at 37° C. Culture medium was removed carefully. And after dissolving formazan crystal by adding 150 μl of DMSO, the absorbance at 570 nm was determined.

[1] = system: CPAE (calf pulmonary artery endothelial cell); assay: Inhibiting activity on cell proliferation, SRB analysis (CPAE); type: cell-based; conditions: for IC50: Bos taurus, Endothelial cell, 72 h, CPAE cells, 3 days with drug, SRB, read-out: IC50 (nM) CAPE; for effect compared to CKD-731 against CPAE: relative to CKD-731; for effect compared to CKD-731 against SI: safety/selectivity index relative to CKD-731; for Selectivity Index (L5178Y/CAPE): IC50 L5178Y / IC50 CPAE
Experimental: as §1, §2
(§3) The cell was cultured with drugs for 3 days and then 50 μl of 50% TCA was added thereto (final concentration 10%). Subsequently the cell was fixed by being left alone at 4° C. for 1 hour. The well was washed 4 times by distilled water and then dried. After that 100 μl of SRB (Sulforhodamine B, Sigma Chemical Co.) solution (0.4% w/v in 1% acetic acid) was added thereto and then it was left alone at ordinary temperature for 30 minutes. Thereafter the well was washed 4 times by 1% acetic acid and dried. And then after adding 200 μl of 10 mM tris buffer, the absorbance at 570 nm was measured by automatic microplate reader (Model: Elx 808, Bio-Tek Instrument, INC). The viability was calculated from the ratio of the absorbance of the control to which drugs were not added and the well to which drugs were added.

Solubility test = type: physicochemical; conditions: ordinary temperature
Experimental: To a constant amount (400 mg) of each compounds of present invention, a constant amount of demineralized water, methanol and ethanol were added separately, and the solution was stirred at ordinary temperature.

[2] = 1 month
Experimental: (§4) Each compound of the present invention was kept in an air-tight vessel for 1 month at 40±2° C. and 75±5% of relative humidity. Thereafter the HPLC purity test was executed.
(§5) 25 mL of the solution was precisely taken, and poured into 100 mL volumetric flask. Acetonitrile/20 mM ammonium acetate aqueous solution (50:50) was added thereto to be the total volume of 100 ml. The solution was filtrated, and the filtrate was used as a test liquid.
(§6) (2) Operational Condition of Instrument. • Column: Kromasil®C18 (UG 100 Å, 5 μm, 4.6 mm Φ×250 mm) • Column temperature: 30° C. • Mobil phase: 20 mM ammonium acetate (pH 4.2) buffer:acetonitrile (55:45) • Injection volume: 20 μL • Flow rate: 1.2 mL/min • Detector: UV light-absorption Spectrophotometer (detection wavelength: 306 nm)

SD rats = assay: Acute oral toxicity test on rats; type: in vivo; conditions: single oral dose 1 g/kg/15 ml in 0.5% methylcellulose
Experimental: The acute toxicity test was carried out using 6-weeks-old SD rats. Each Example of O-(4-(2-hydroxyethoxy)cinnamoyl)fumagillol (a compound of the Example 1), O-(3,5-dimethoxy-4-(2-hydroxyethoxy)cinnamoyl)fumagillol (a compound of the Example 2) and O-(4-(2-hydroxyethoxy)-3-methoxycinnamoyl)fumagillol (a compound of the Example 3) was suspended in 0.5% methylcellulose, and then orally administrated once to 5 of each male and each female rats per group by dosage of 1 g/kg/15 ml. After administrating the test substances, the death of the rats, clinic symptoms and the change of weight were observed. And also hematologic and blood biochemical tests were executed, the abnormality of abdominal and thoracic organs was observed by autopsy with the naked eye.

[3] = Chemical stability test (HPLC purity); conditions: for 1 month Other peaks (%) / 1 month Parent peak (%) / Initial Other peaks (%) / Initial Parent peak (%): HPLC; for 1 month Other peaks (%) / 1 month Parent peak (%): air-tight vessel; for change of purity (%): initial vs 1 month at 40±2° C.
Experimental: as §4, §5, §6

[4] = system: HUVEC (human umbilical vein endothelial cell); assay: Inhibiting activity on cell proliferation, SRB analysis (HUVEC); type: cell-based; conditions: Homo sapiens, 72 h, HUVEC cells, 3 days with drug
Experimental: as §1, §2, §3

[5] = 1 month at 40±2° C., 75±5% relative humidity

| Compound | IC50 (L5178Y lymphoma) [nM] | IC50 [1] [nM] | effect compared to CKD-731 against CPAE [1] | effect compared to CKD-731 against SI [1] | The amount of solvent to dissolve 1 g of the compounds (ml), demineralized water (Solubility test) [mL] | The amount of solvent to dissolve 1 g of the compounds (ml), ethanol (Solubility test) [mL] | The amount of solvent to dissolve 1 g of the compounds (ml), methanol (Solubility test) [mL] | chemical stability compared to known compounds [2] | clinic symptoms, death and change by toxicity (autopsy) (SD rats) | change of purity (in words) [3, 5] | 1 month Other peaks (%) [3, 5] [%] | 1 month Parent peak (%) [3, 5] [%] | Initial Other peaks (%) [3] [%] | Initial Parent peak (%) [3] [%] | change of purity (%) ([3]; 75±5% relative humidity) | Selectivity Index (L5178Y/CAPE) [1] | IC50 [4] [nM] | chemical stability compared to known compounds [3, 5] |
| --- | --- | --- | --- | --- | --- | --- | --- | --- | --- | --- | --- | --- | --- | --- | --- | --- | --- | --- |
| COc1cc(/C=C/C(=O)O[C@@H]2CC[C@]3(CO3)[C@@H]([C@@]3(C)O[C@@H]3CC=C(C)C)[C@@H]2OC)ccc1OCCO [Example 3, O-(4-(2-hydroxyethoxy)-3-methoxycinnamoyl)fumagillol] | 56400 | 0.0045 | equivalent or not smaller than twice effect of CKD-731 | equivalent or more effect of CKD-731 | 142 | 61 | 45 | more excellent chemical stability than TNP-470, CKD-732 and CKD-731 | no notable clinic symptoms, death and change by toxicity | hardly showed a change of purity | 1.6 | 98.4 | 1.5 | 98.5 | 0.1 |  |  |  |
| COc1cc(/C=C/C(=O)O[C@@H]2CC[C@]3(CO3)[C@@H]([C@@]3(C)O[C@@H]3CC=C(C)C)[C@@H]2OC)cc(OC)c1OCCO [Example 2, O-(3,5-dimethoxy-4-(2-hydroxyethoxy)cinnamoyl)fumagillol] | 25000 | 0.0025 | equivalent or not smaller than twice effect of CKD-731 | equivalent or more effect of CKD-731 | 146 | 59 | 37 | more excellent chemical stability than TNP-470, CKD-732 and CKD-731 | no notable clinic symptoms, death and change by toxicity | hardly showed a change of purity | 0.9 | 99.1 | 0.9 | 99.1 | 0 | 1.00 × 10^7 |  |  |
| CO[C@@H]1[C@H](OC(=O)/C=C/c2ccc(Cl)c(NCCO)c2)CC[C@]2(CO2)[C@H]1[C@@]1(C)O[C@@H]1CC=C(C)C [Example 7, O-(4-chloro-3-(2-hydroxyethylamino)cinnamoyl)fumagillol] | 31000 | 0.0065 |  |  | 137 | 67 | 42 |  |  |  | 1.1 | 98.9 | 0.6 | 99.4 | 0.5 | 4.77 × 10^6 | 0.0017 | more excellent chemical stability than TNP-470, CKD-732 and CKD-731 |
